# Assay results taken from patent US11596611B2, “Hepatitis B antiviral agents” (ENANTA PHARMACEUTICALS, INC., priority 2017, dated 2023).
# Tested on: HBV
# Assay: HepAD38 antiviral assay: reduction of viral product accumulation (virion DNA by qPCR, HBsAg or HBeAg by ELISA)
# Type: cell-based, hepatitis B virus
# Conditions: Hepatitis B virus, 120 h; HepAD38 cells, five days after compound addition; 50% reduction of viral product vs no drug controls; read-out: HepAD38 EC50
# Procedure: Methods: HepAD38 cells are maintained as previously reported (Ladner et al, Antimicrob. Agents Chemother. 1997, […], 1715). Briefly, cells are passaged upon attaining confluency in DMEM/F12 media in the presence of 10% FBS, Penn/Strep, 250 μg/mL G418, and 1 ug/ml tetracycline. Novel compounds are screened by first washing cells three times with PBS to remove tetracycline, and plating in 96 well plates at 35,000 cells/well. Compounds dissolved in DMSO are then diluted 1:200 into wells containing cells. Five days after compound addition, material is harvested for analysis. For an extended 8 days analysis, cells are plated and treated as described above, but media and compound are refreshed on d2 and d5 post initial treatment.
# On harvest day, virion DNA is obtained by lysing with Sidestep Lysis and Stabilization Buffer and then quantified via quantitative real time PCR. Commercially available ELISA kits are used to quantitate the viral proteins HBsAg (Alpco) or HbeAg (US Biological) by following the manufacturer's recommended protocol after diluting samples to match the linear range of their respective assays.
row,SMILES,EC50 [nM]
1,CS(=O)(=O)NCC(O)[C@]1(O)C2CCC1C[C@@H](S(=O)(=O)c1cc(C(=O)Nc3cc(F)c(F)c(F)c3)ccc1Cl)C2 (stereo partly drawn) [Example 26],< 104
2,O=C(Nc1ccc(F)c(F)c1)c1ccc(Cl)c(S(=O)(=O)[C@H]2CC3CCC(C2)[C@]3(O)CN2CCOC2=O)c1 [Example 306],< 104
3,C[C@]1(O)C2CCC1C[C@@H](S(=O)(=O)c1cc(C(=O)Nc3ncccn3)ccc1Cl)C2 [Example 217],> 200
4,O=C(Nc1ccc(F)c(F)c1)c1ccc(Cl)c(S(=O)(=O)CC2CCC3(CC2)OCCO3)c1 [Example 216],100 to 200
5,O=C(Nc1ccc(F)c(F)c1)c1ccc(Cl)c(S(=O)(=O)[C@@H]2CC3CC[C@@H](C2)[C@@]3(O)C(O)c2ncccc2C(F)F)c1 (stereo partly drawn) [Example 349],100 to 200
6,O=C(Nc1ccc(F)c(F)c1)c1ccc(Cl)c(S(=O)(=O)CC2CC(O)(C(O)CO)C2)c1 (stereo not drawn) [Example 207],> 200
7,O=C(Nc1ccc(F)c(F)c1)c1ccc(Cl)c(S(=O)(=O)[C@H]2CC3CCC(C2)[C@]3(O)C(O)C(O)CN2CCCS2(=O)=O)c1 (stereo partly drawn) [Example 320],< 104
8,O=C(Nc1cc(F)c(F)c(F)c1)c1ccc(Cl)c(S(=O)(=O)[C@H]2CC3CCC(C2)[C@]3(O)COC[C@H](O)C(O)CO)c1 (stereo partly drawn) [Example 60],100 to 200
9,"O=C(Nc1ccc(F)c(F)c1)c1ccc(Cl)c(S(=O)(=O)[C@H]2CC3CCC(C2)[C@]3(O)[C@@H](O)c2ccccn2)c1 (single isomer, unassigned) [Example 284a]",< 104
10,COC(=O)N1CC[C@H](O)[C@H]1C(=O)NC[C@@]1(O)C2CC[C@H]1C[C@H](S(=O)(=O)c1cc(C(=O)Nc3cc(F)c(F)c(F)c3)ccc1Cl)C2 [Example 79],> 200
11,O=C(Nc1cc(F)c(F)c(F)c1)c1ccc(Cl)c(S(=O)(=O)[C@H]2CC3CCC(C2)[C@]3(O)COCC(O)CO)c1 (stereo partly drawn) [Example 63],< 104
12,COC(=O)N1C[C@H](O)C[C@H]1C(=O)NCC(O)[C@]1(O)C2CCC1C[C@@H](S(=O)(=O)c1cc(C(=O)Nc3cc(F)c(F)c(F)c3)ccc1Cl)C2 (stereo partly drawn) [Example 107],> 200
13,O=C(O)CCNC(=O)C[C@]1(O)C2CCC1C[C@@H](S(=O)(=O)c1cc(C(=O)Nc3cc(F)c(F)c(F)c3)ccc1Cl)C2 [Example 140],> 200
14,O=C(C[C@]1(O)C2CCC1C[C@@H](S(=O)(=O)c1cc(C(=O)Nc3cc(F)c(F)c(F)c3)ccc1Cl)C2)NC1COC1 [Example 110],< 104
15,COC(=O)CCNC(=O)[C@H]1C[C@H](S(=O)(=O)c2cc(C(=O)Nc3ccc(F)c(F)c3)ccc2Cl)C1 [Example 257a],> 200
16,CN1C2CCC1CC(S(=O)(=O)c1cc(C(=O)Nc3cc(F)c(F)c(F)c3)ccc1Cl)C2 (stereo not drawn) [Example 145],> 200
17,COC(=O)N[C@H](C(=O)NC[C@]1(O)C2CCC1C[C@@H](S(=O)(=O)c1cc(C(=O)Nc3cc(F)c(F)c(F)c3)ccc1Cl)C2)C(C)C [Example 50],< 104
18,O=C(Nc1ccc(F)c(F)c1)c1ccc(Cl)c(S(=O)(=O)[C@@H]2CC3CC[C@@H](C2)[C@@]3(O)C(O)c2ccc(C(F)(F)F)cn2)c1 (stereo partly drawn) [Example 300],> 200
19,O=C(Nc1ccc(F)c(F)c1)c1ccc(Cl)c(S(=O)(=O)[C@H]2CC3CCC(C2)[C@]3(O)C(O)Cc2cccnc2)c1 (stereo partly drawn) [Example 318],> 200
20,O=C(Nc1cc(F)c(F)c(F)c1)c1ccc(Cl)c(S(=O)(=O)[C@@H]2CC3CC[C@@H](C2)[C@@]3(O)CNC(=O)[C@]2(O)CCC[C@H]2O)c1 (relative stereo) [Example 59],100 to 200
21,COC(=O)[C@H]1C[C@H](S(=O)(=O)c2cc(C(=O)Nc3ccc(F)c(F)c3)ccc2Cl)C1 [Example 250a],> 200

row,SMILES,EC50 [nM]
1,Cc1ccc(C(=O)Nc2ccc(F)c(F)c2)cc1S(=O)(=O)[C@H]1CC2CCC(C1)[C@@]2(C)O [Example 47],100 to 200
2,O=C(Nc1cc(F)c(F)c(F)c1)c1ccc(Cl)c(S(=O)(=O)[C@H]2CC3CCC(C2)[C@]3(O)CNS(=O)(=O)CC(O)CO)c1 (stereo partly drawn) [Example 40],> 200
3,C[C@]1(O)C2CCC1C[C@@H](S(=O)(=O)c1cc(C(=O)Nc3ccnnc3)ccc1Cl)C2 [Example 212],> 200
4,COCC(COC)OC[C@]1(O)C2CCC1C[C@@H](S(=O)(=O)c1cc(C(=O)Nc3cc(F)c(F)c(F)c3)ccc1Cl)C2 [Example 121],< 104
5,O=C(Nc1ccc(F)c(F)c1)c1ccc(Cl)c(S(=O)(=O)[C@@H]2CC3CC[C@@H](C2)[C@@]3(O)Cn2ccc(=O)[nH]c2=O)c1 [Example 305],< 104
6,O=C(Nc1ccc(F)c(F)c1)c1ccc(Cl)c(S(=O)(=O)[C@H]2CC3CCC(C2)[C@]3(O)C(O)C(O)CN2CCOC2=O)c1 (stereo partly drawn) [Example 313],< 104
7,O=C(Nc1cc(F)c(F)c(F)c1)c1ccc(Cl)c(S(=O)(=O)[C@@H]2CC3CC[C@@H](C2)[C@@]3(O)CNC(=O)[C@H]2OCC(O)[C@@H]2O)c1 (stereo partly drawn) [Example 29],> 200
8,O=C(CCCO)NC[C@]1(O)C2CCC1C[C@@H](S(=O)(=O)c1cc(C(=O)Nc3cc(F)c(F)c(F)c3)ccc1Cl)C2 [Example 2],100 to 200
9,COC[C@]1(O)C2CCC1C[C@H](S(=O)(=O)c1cc(C(=O)Nc3cc(F)c(F)c(F)c3)ccc1Cl)C2 [Example 124],< 104
10,CC(C)(O)C(O)CNC(=O)C[C@]1(O)C2CCC1C[C@@H](S(=O)(=O)c1cc(C(=O)Nc3cc(F)c(F)c(F)c3)ccc1Cl)C2 (stereo partly drawn) [Example 56],100 to 200
11,O=C1N[C@@H](C(=O)NC[C@]2(O)C3CCC2C[C@@H](S(=O)(=O)c2cc(C(=O)Nc4cc(F)c(F)c(F)c4)ccc2Cl)C3)CO1 [Example 95],> 200
12,O=C(Nc1ccc(F)c(F)c1)c1ccc(Cl)c(S(=O)(=O)[C@H]2CC3CCC(C2)[C@@]3(O)C(O)CN2CCCS2(=O)=O)c1 (stereo partly drawn) [Example 309],100 to 200
13,C[C@]1(O)C2CCC1C[C@@H](S(=O)(=O)c1cc(C(=O)Nc3ccc(F)c(F)c3)c(-c3ccccn3)cc1Cl)C2 [Example 133],> 200
14,C[C@@]1(O)C2CC[C@H]1C[C@H](S(=O)(=O)c1cc(C(=O)Nc3ccc(F)c(F)c3)c(-c3ccncc3)cc1Cl)C2 [Example 132],> 200
15,COC(=O)CCNC(=O)C[C@]1(O)C2CCC1C[C@@H](S(=O)(=O)c1cc(C(=O)Nc3cc(F)c(F)c(F)c3)ccc1Cl)C2 [Example 139],> 200
16,CC[C@H](O)[C@@H](O)[C@]1(O)C2CCC1C[C@@H](S(=O)(=O)c1cc(C(=O)Nc3ccc(F)c(F)c3)ccc1Cl)C2 [Example 334],< 104
17,O=C(Nc1ccc(F)c(F)c1)c1ccc(Cl)c(S(=O)(=O)[C@H]2C3CC[C@H]2C[C@](O)(c2ncc[nH]2)C3)c1 [Example 6],< 104
18,Nc1cc(NC(=O)c2ccc(Cl)c(S(=O)(=O)[C@H]3CC4CCC(C3)[C@]4(O)C(O)c3ncc[nH]3)c2)ccc1F (stereo partly drawn) [Example 287],> 200
19,C[C@]1(O)C2CCC1C[C@@H](S(=O)(=O)c1cc(C(=O)Nc3ccncn3)ccc1Cl)C2 [Example 221],> 200
20,O=C(Nc1ccc(F)c(F)c1)c1ccc(Cl)c(S(=O)(=O)[C@H]2CC3CCC(C2)[C@]3(O)CO[C@@H]2O[C@H](C(=O)O)[C@@H](O)[C@H](O)[C@H]2O)c1 [Example 330],> 200
21,O=C(Nc1ccc(F)c(F)c1)c1ccc(Cl)c(S(=O)(=O)[C@H]2CC3CCC(C2)[C@]3(O)C(O)c2ncccc2F)c1 (stereo partly drawn) [Example 297],< 104
